Laboratory results from ChEMBL document CHEMBL5131517 (ACS Med Chem Lett, 2022).

Key:
[1] = biological target: T1, Alpha-1A adrenergic receptor (Homo sapiens) (UniProt P35348); test: Inhibition of alpha1A receptor (unknown origin); conditions: concentration not given here
T1 sequence (whole entry): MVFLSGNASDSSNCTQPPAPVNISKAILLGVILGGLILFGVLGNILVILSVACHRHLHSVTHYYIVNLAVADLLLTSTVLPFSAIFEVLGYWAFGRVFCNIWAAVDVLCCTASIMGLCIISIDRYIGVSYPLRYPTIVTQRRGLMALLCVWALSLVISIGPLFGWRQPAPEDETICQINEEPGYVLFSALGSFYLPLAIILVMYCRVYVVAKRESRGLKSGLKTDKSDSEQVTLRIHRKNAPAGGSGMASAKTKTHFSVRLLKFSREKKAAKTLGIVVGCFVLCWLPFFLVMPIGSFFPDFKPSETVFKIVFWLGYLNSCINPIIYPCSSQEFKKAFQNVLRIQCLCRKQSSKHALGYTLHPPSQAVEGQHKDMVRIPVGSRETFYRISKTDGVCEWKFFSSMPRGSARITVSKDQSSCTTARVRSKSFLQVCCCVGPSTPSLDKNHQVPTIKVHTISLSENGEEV

[2] = biological target: T2, Alpha-2C adrenergic receptor (Homo sapiens) (UniProt P18825); test: Inhibition of alpha2c (unknown origin); conditions: concentration not given here
T2 sequence (whole entry): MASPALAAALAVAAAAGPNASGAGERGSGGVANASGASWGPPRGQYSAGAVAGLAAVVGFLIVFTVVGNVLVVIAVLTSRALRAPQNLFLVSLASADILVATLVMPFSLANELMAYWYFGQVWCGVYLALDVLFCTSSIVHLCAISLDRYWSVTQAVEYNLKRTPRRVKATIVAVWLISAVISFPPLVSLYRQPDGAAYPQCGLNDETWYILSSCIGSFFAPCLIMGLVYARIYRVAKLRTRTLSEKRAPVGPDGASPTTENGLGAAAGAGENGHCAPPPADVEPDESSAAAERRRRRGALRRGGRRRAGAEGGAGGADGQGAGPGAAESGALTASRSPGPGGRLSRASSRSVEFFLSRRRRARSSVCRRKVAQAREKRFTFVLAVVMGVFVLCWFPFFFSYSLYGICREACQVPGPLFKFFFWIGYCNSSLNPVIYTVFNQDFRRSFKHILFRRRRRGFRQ

[3] = biological target: 5-hydroxytryptamine receptor 2A (Homo sapiens, UniProt P28223); test: Agonist activity at human 5HT2A receptor stably expressed in Flp-In-T-REx-293 cells assessed as maximal Gq-mediated calcium flux by Fluo-4 direct dye based FLIPR Tetra assay relative to control; type: functional, cell-based; conditions: filed as agonist
[4] = biological target: T3, 5-hydroxytryptamine receptor 2C (Homo sapiens, UniProt P28335); test: Binding affinity to 5HT2C receptor (unknown origin) assessed as inhibition constant
T3 sequence (P28335 whole entry): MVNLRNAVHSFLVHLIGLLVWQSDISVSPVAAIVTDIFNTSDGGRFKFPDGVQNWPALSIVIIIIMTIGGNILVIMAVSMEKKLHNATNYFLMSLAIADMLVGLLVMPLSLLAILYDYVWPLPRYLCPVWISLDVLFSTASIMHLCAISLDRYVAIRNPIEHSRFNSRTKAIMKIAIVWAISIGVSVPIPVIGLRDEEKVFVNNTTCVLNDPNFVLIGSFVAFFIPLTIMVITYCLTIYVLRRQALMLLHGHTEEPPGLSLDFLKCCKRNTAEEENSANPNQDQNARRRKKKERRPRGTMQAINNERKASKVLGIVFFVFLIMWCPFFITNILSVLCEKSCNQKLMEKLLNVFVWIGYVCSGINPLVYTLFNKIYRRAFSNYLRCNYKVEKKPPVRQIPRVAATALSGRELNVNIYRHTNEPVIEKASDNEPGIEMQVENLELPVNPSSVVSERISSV

[5] = biological target: 5-hydroxytryptamine receptor 1E (Homo sapiens, UniProt P28566); test: Binding affinity to 5HT1E receptor (unknown origin) assessed as inhibition constant
[6] = biological target: D(2) dopamine receptor (Homo sapiens) (UniProt P14416); test: Inhibition of D2 receptor (unknown origin); conditions: concentration not given here
[7] = biological target: Muscarinic acetylcholine receptor M3 (Homo sapiens) (UniProt P20309); test: Inhibition of M3 receptor (unknown origin); conditions: concentration not given here
D(3) dopamine receptor = D(3) dopamine receptor (Homo sapiens, UniProt P35462); test: Inhibition of D3 receptor (unknown origin); conditions: concentration not given here
[8] = biological target: D(1B) dopamine receptor (Homo sapiens) (UniProt P21918); test: Inhibition of D5 receptor (unknown origin); conditions: concentration not given here
[9] = biological target: T4, Muscarinic acetylcholine receptor M5 (Homo sapiens) (UniProt P08912); test: Inhibition of M5 receptor (unknown origin); conditions: concentration not given here
T4 sequence (whole entry): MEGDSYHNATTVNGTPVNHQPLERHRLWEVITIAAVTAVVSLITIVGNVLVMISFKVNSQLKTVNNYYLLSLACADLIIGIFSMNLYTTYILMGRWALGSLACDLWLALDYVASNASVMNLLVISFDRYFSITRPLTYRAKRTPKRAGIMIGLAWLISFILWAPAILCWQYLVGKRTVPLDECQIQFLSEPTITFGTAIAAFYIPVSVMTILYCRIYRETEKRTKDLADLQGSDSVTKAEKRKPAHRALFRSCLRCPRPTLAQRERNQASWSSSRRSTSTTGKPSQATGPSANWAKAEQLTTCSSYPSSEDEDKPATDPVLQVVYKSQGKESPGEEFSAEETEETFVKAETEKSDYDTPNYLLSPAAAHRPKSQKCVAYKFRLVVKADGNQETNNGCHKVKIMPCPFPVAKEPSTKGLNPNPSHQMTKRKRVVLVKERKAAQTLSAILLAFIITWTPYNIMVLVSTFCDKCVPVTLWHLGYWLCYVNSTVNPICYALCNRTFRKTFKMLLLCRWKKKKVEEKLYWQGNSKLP

[10] = biological target: Sigma non-opioid intracellular receptor 1 (Homo sapiens, UniProt Q99720); test: Binding affinity to sigma 1 receptor (unknown origin) assessed as inhibition constant
[11] = biological target: Beta-2 adrenergic receptor (Homo sapiens) (UniProt P07550); test: Inhibition of beta 2 receptor (unknown origin); conditions: concentration not given here
[12] = biological target: T5, Muscarinic acetylcholine receptor M2 (Homo sapiens) (UniProt P08172); test: Inhibition of M2 receptor (unknown origin); conditions: concentration not given here
T5 sequence (whole entry): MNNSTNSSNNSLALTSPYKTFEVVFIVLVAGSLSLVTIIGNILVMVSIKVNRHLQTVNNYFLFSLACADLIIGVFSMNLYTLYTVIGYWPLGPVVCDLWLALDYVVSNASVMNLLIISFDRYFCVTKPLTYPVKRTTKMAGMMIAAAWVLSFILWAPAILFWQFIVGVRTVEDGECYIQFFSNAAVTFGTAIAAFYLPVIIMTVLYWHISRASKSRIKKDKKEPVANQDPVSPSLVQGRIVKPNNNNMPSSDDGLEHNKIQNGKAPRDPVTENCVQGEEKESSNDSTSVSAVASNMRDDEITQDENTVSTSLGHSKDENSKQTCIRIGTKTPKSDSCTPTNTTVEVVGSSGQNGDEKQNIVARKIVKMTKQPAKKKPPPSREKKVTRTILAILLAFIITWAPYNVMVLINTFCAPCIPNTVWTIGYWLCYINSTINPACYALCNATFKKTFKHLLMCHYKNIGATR

Chain of 5-hydroxytryptamine receptor 1E (P28566 whole entry): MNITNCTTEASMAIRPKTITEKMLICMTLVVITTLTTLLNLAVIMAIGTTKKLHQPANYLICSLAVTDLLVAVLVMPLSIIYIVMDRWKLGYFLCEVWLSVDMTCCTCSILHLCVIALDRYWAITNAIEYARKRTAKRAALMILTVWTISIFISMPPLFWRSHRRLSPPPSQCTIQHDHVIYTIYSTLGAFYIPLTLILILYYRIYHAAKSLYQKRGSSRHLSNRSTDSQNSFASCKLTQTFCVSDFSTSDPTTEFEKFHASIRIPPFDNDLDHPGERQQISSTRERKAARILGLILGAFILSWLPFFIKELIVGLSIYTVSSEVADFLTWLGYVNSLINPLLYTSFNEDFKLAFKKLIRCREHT
Chain of Beta-2 adrenergic receptor (Homo sapiens) (P07550 whole entry, looked up): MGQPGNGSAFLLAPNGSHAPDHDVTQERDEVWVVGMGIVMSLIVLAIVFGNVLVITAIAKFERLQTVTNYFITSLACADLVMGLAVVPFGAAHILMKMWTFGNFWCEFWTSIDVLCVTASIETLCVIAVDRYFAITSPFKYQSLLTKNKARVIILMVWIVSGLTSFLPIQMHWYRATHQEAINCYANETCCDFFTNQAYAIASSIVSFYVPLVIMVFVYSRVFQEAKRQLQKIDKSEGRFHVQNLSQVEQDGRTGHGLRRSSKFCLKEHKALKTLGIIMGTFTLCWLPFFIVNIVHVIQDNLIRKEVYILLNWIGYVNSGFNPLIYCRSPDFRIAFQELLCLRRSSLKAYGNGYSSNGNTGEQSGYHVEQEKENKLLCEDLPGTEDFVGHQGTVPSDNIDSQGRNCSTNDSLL
Chain of D(1B) dopamine receptor (Homo sapiens) (P21918 whole entry): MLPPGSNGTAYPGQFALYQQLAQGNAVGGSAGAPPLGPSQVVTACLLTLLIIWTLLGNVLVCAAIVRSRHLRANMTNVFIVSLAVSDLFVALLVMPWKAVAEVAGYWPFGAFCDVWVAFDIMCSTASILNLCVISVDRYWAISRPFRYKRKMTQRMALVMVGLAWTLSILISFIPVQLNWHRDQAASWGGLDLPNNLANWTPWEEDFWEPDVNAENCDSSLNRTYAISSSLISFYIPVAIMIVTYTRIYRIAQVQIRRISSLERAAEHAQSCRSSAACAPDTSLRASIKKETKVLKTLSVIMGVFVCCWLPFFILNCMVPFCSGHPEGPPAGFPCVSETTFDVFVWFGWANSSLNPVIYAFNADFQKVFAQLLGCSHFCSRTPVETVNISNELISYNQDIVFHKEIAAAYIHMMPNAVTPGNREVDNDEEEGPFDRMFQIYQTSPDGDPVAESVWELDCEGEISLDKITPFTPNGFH
Chain of Muscarinic acetylcholine receptor M3 (Homo sapiens) (P20309 whole entry, looked up): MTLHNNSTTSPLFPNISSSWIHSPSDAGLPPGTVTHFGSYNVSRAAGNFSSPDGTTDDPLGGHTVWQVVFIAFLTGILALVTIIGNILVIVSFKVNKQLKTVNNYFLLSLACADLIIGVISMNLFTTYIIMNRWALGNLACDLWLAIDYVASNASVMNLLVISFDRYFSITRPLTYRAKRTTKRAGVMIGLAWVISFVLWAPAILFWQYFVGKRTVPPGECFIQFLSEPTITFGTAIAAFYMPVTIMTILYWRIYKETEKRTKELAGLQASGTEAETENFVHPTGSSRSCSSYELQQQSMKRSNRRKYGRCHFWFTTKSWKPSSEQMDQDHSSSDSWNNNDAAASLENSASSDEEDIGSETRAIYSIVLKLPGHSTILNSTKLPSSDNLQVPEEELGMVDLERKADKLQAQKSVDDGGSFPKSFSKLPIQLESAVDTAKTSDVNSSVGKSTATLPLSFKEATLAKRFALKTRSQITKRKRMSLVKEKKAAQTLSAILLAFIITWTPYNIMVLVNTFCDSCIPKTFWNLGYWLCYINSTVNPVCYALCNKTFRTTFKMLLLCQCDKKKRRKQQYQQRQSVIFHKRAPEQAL
Chain of D(3) dopamine receptor (P35462 whole entry): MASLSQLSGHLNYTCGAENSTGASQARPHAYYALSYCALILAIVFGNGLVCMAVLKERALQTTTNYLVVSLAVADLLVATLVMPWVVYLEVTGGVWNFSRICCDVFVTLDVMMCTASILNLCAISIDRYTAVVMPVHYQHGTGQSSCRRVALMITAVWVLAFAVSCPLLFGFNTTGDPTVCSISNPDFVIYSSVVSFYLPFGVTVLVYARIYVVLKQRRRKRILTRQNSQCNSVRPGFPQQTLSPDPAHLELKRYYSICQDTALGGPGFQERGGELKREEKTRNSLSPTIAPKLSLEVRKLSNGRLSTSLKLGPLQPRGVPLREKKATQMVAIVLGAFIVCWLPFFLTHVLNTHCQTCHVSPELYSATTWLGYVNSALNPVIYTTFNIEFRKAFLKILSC
Chain of 5-hydroxytryptamine receptor 2A (P28223 whole entry): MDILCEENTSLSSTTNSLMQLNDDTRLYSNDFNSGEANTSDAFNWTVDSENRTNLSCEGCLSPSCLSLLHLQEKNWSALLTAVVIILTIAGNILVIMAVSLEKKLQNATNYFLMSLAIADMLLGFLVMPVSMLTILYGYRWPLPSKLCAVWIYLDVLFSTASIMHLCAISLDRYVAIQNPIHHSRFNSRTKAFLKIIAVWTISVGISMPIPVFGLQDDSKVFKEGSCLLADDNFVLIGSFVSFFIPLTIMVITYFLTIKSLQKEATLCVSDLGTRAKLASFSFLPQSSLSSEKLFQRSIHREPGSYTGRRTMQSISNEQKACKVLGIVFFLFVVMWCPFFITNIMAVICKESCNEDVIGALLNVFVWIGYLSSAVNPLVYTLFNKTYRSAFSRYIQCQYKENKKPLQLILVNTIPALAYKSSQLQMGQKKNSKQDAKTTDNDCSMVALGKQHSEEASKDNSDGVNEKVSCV
Chain of Sigma non-opioid intracellular receptor 1 (Q99720 whole entry): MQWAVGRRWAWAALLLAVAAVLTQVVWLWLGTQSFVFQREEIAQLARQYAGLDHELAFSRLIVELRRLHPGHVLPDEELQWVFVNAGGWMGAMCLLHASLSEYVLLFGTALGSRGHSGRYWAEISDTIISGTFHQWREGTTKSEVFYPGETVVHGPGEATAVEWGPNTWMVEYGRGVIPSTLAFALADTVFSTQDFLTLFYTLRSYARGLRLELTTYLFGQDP
Chain of D(2) dopamine receptor (Homo sapiens) (P14416 whole entry): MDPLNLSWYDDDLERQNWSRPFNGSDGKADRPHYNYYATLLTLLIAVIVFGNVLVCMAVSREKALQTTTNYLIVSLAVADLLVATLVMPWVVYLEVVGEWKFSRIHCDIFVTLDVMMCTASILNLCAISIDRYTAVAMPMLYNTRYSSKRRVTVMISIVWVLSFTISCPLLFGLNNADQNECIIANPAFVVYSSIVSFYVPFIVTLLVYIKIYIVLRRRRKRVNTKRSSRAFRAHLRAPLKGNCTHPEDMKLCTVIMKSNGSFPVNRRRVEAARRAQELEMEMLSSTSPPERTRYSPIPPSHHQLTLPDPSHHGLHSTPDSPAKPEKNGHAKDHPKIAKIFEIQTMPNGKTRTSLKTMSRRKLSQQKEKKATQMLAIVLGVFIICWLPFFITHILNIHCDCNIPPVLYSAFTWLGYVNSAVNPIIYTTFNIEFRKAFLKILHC

| inhibition [1] [%] | inhibition [2] [%] | Emax [3] [%] | Ki [4] [nM] | Ki [5] [nM] | inhibition [6] [%] | inhibition [7] [%] | inhibition (D(3) dopamine receptor) [%] | inhibition [8] [%] | inhibition [9] [%] | Ki [10] [nM] | inhibition [11] [%] | inhibition [12] [%] | SMILES |
| --- | --- | --- | --- | --- | --- | --- | --- | --- | --- | --- | --- | --- | --- |
| < 50 | < 50 | 98.4 | 25.2 | 666 | < 50 | < 50 | < 50 | < 50 | < 50 | 1490 | < 50 | < 50 | COc1cc(OC)c(C2NCCc3c2[nH]c2ccc(Cl)cc32)cc1OC (stereo not drawn) |
| < 50 | < 50 | 100 | 35.9 | 1750 | < 50 | < 50 | – | < 50 | < 50 | 1030 | < 50 | < 50 | COc1ccc(C2NCCc3c2[nH]c2ccc(Cl)cc32)c(O)c1 (stereo not drawn) |
| < 50 | < 50 | 102 | 49.8 | 1410 | < 50 | < 50 | < 50 | < 50 | < 50 | – | < 50 | < 50 | COc1ccc(C2NCCc3c2[nH]c2ccc(F)cc32)c(O)c1 (stereo not drawn) |
| < 50 | – | 97.1 | 671 | – | < 50 | < 50 | < 50 | < 50 | < 50 | 760 | < 50 | < 50 | COc1cc(OC)c(C2NCCc3c2[nH]c2ccc(F)cc32)cc1OC (stereo not drawn) |
